For 41 molecules, IC50 results are on record in US8778951B2, “Heteroaryl compounds and their uses” (Novartis AG, priority 2009, dated 2014).

Usually IC50 stands for the point on the concentration scale where inhibition reaches its midpoint. A high value points to a need for much substance.

Cdk9/cyclinT1, sequence (P50750 whole entry): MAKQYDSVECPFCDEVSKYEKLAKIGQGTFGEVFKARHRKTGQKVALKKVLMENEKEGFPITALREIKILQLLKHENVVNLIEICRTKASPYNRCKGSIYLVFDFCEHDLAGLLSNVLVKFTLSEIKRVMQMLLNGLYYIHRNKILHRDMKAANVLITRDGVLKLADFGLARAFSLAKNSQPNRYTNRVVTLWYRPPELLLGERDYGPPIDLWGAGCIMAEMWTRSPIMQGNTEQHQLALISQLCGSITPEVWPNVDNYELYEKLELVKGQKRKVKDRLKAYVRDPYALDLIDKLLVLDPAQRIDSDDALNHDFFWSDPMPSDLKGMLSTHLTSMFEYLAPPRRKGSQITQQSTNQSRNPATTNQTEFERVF
Cdk9/cyclinT1, sequence (O60563 whole entry partner): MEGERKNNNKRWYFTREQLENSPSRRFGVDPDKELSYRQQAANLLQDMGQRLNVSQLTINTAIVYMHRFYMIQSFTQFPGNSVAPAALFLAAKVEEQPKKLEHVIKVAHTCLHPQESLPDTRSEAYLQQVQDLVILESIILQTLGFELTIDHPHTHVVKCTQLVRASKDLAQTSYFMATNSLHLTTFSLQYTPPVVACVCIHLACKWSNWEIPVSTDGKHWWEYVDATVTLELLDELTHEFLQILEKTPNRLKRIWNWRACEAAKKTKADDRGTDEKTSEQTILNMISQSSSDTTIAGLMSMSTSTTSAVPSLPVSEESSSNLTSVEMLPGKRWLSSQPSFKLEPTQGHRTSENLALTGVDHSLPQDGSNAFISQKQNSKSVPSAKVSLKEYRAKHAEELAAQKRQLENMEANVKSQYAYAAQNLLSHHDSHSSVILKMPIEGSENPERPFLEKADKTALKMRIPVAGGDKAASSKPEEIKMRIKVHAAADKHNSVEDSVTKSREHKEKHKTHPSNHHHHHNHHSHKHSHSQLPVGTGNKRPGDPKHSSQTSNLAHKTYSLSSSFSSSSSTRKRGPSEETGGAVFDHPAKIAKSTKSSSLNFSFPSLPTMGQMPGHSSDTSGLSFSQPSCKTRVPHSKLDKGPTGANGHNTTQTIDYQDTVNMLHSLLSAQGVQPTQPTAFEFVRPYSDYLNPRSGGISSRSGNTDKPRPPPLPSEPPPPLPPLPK

This assay concerns the target Cdk9/cyclinT1 (Homo sapiens (Human), UniProt P50750). The experiment in a line: Cdk9/CyclinT1 IMAP Protocol (fluorescence polarization kinase assay). The assay is classed as biochemical. Conditions: Table 2; generated using one of the two Cdk9/cyclinT1 assays (IMAP or Alpha Screen), not specified which; unit inferred. The procedure: Cdk9/CyclinT1 IMAP Protocol
The biological activity of the compounds of the invention can be determined using the assay described below.
Cdk9/cyclinT1 is purchased from Millipore, cat #14-685. The final total protein concentration in the assay 4 nM. […] The final concentration of peptide substrate is 100 nM. The ATP substrate (Adenosine-5′-triphosphate) is purchased from Roche Diagnostics, cat#1140965. The final concentration of ATP substrate is 6 uM. IMAP (Immobilized Metal Assay for Phosphochemicals) Progressive Binding reagent is purchased from Molecular Devices, cat#R8139. Fluorescence polarization (FP) is used for detection. The 5TAMRA-cdk7tide peptide is phosphorylated by Cdk9/cyclinT1 kinase using the ATP substrate. The Phospho-5TAMRA-cdk7tide peptide substrate is bound to the IMAP Progressive Binding Reagent. The binding of the IMAP Progressive Binding Reagent changes the fluorescence polarization of the 5TAMRA-cdk7tide peptide which is measured at an excitation of 531 nm and FP emission of 595 nm. Assays are carried out in 100 mM Tris, pH=7.2, mM MgCl2, 0.05% NaN3, 0.01% Tween-20, 1 mM dithiothreitol and 2.5% dimethyl sulfoxide. IMAP Progressive Binding Reagent is diluted 1:800 in 100% 1× Solution A from Molecular Devices, cat#R7285.
General protocol is as follows: To 10 ul of cdk9/cyclinT1, 0.5 ul of test compound in dimethyl sulfoxide is added. 5TAMRA-cdk7tide and ATP are mixed. 10 ul of the 5TAMRA-cdk7tide/ATP mix is added to start the reaction. The reaction is allowed to proceed for 4.5 hrs. 60 uL of IMAP Progressive Binding Reagent is added. After >1 hr of incubation, plates are read on the Envision 2101 from Perkin-Elmer. The assay is run in a 384-well format using black Corning plates, cat#3573.
On the technique in general: Polarisation of emitted light reports the rotation of a fluorescent probe.
Molecule “3,5′-dichloro-N6-((tetrahydro-2H-pyran-4-yl)methyl)-N2′-(trans-4-(((R)-tetrahydrofuran-2-yl)methyl)aminocyclohexyl)-2,4′-bipyridine-2′,6-diamine [Compound 268]” gave a concentration for half-maximal inhibition (IC50) of 8.14 nM.

`O[C@H]1CC[C@@H](Nc2cc(-c3cccc(NCc4cccc(F)c4)n3)c(Cl)cn2)CC1` [Compound 182]: the concentration for half-maximal inhibition (IC50) came out at 21.1 nM.

The molecule `O[C@H]1CC[C@H](Nc2cc(-c3cccc(NCC4CCCOC4)n3)c(Cl)cn2)CC1` (some centres unmarked) [Compound 128] returned a concentration for half-maximal inhibition (IC50) of 33.4 nM. In the case of `O[C@H]1CC[C@H](Nc2cc(-c3cccc(NCC4CCNCC4)n3)c(Cl)cn2)CC1` [Compound 119] it was 155 nM; in that of `NC[C@H]1CC[C@H](Nc2cc(-c3cccc(NCc4cc(F)ccc4F)n3)c(Cl)cn2)CC1` [Compound 61], 18.1 nM. `CC(=O)N1CCC[C@H](CNc2cccc(-c3ccnc(N[C@H]4CC[C@H](N)CC4)c3)n2)C1` [Compound 216, 1-((R)-3-((2′-(trans-4-aminocyclohexylamino)-2,4′-bipyridin-6-yl-amino)methyl)piperidin-1-yl)ethanone] displayed an IC50 of 138 nM. As for `NCCCNc1cccc(-c2cc(N[C@H]3CC[C@H](O)CC3)ncc2Cl)n1` [Compound 118], half-maximal inhibition (IC50) was put at 139 nM. In the case of `O[C@@H]1CC[C@H](Nc2cc(-c3cccc(NCc4cccc(F)c4)n3)c(Cl)cn2)C1` [Compound 184], 9.11 nM corresponded to half-maximal inhibition (IC50). In the case of `CS(=O)(=O)CCN[C@H]1CC[C@H](Nc2cc(-c3ccc(F)c(NCC4CCOCC4)n3)c(Cl)cn2)CC1` [Compound 326] it was 0.49 nM. The result for `CN1CCN(C[C@H]2CC[C@H](Nc3cc(-c4cccc(NCc5cccc(F)c5)n4)c(Cl)cn3)CC2)CC1` [Compound 111] reads 30.8 nM; that for `CC1(C)OC[C@@H](CN[C@H]2CC[C@H](Nc3cc(-c4nc(NCC5CCOCC5)ccc4Cl)c(Cl)cn3)CC2)O1` [Compound 320, 3,5′-dichloro-N2′-(trans-4-(((R)-2,2-dimethyl-1,3-dioxolan-4-yl)methyl)aminocyclohexyl)-N6-((tetrahydro-2H-pyran-4-yl)methyl)-2,4′-bipyridine-2′,6-diamine], 1 nM; that for `N[C@H]1CC[C@H](Nc2cc(-c3cccc(NCc4cccc(F)c4)n3)c(Cl)cn2)C1` [Compound 192], 7.94 nM. The result for `COC[C@@H](C)N[C@H]1CC[C@H](Nc2cc(-c3nc(NC[C@@H]4CCCOC4)ccc3Cl)c(Cl)cn2)CC1` [Compound 323, 3,5′-dichloro-N2′-(trans-4-((R)-1-methoxypropan-2-yl-amino)cyclohexyl)-N6-(((S)-tetrahydro-2H-pyran-3-yl)methyl)-2,4′-bipyridine-2′,6-diamine] reads 1 nM; that for `N[C@H]1CC[C@H](Nc2cc(-c3cccc(NCc4cccc(C(F)(F)F)c4)n3)c(Cl)cn2)CC1` [Compound 47], 7.95 nM; that for `N[C@H]1CC[C@H](Nc2cc(-c3cccc(NC[C@H]4CCCO4)n3)c(Cl)cn2)CC1` [Compound 104], 141 nM.

As to `O=S1(=O)CCC(N[C@H]2CC[C@H](Nc3cc(-c4ccc(F)c(NCC5CCOCC5)n4)c(Cl)cn3)CC2)C1` (some centres unmarked) [Compound 322], the IC50 came to 3 nM.

Turning to `Fc1cccc(CNc2cccc(-c3cc(N[C@H]4CCCNC4)ncc3Cl)n2)c1` [Compound 97], half-maximal inhibition (IC50) required 339 nM. In the case of `COC[C@@H](C)N[C@H]1CC[C@H](Nc2cc(-c3cccc(NCC4(C#N)CCOCC4)n3)c(Cl)cn2)CC1` [Compound 310, 4-((5′-chloro-2′-(trans-4-((R)-1-methoxypropan-2-yl-amino)cyclohexylamino)-2,4′-bipyridin-6-ylamino)methyl)tetrahydro-2H-pyran-4-carbonitrile] it was 0.3 nM; in that of `COC[C@H]1CC[C@H](Nc2cc(-c3cccc(NCc4cccc(F)c4)n3)c(Cl)cn2)CC1` [Compound 190], 100 nM. The molecule `CC1(CNc2nc(-c3cc(N[C@H]4CC[C@H](N)CC4)ncc3Cl)ccc2F)CCOCC1` [Compound 312, N2′-(trans-4-aminocyclohexyl)-5′-chloro-5-fluoro-N6-((4-methyltetrahydro-2H-pyran-4-yl)methyl)-2,4′-bipyridine-2′,6-diamine] gave an IC50 of 0.3 nM. Molecule `CN(C)CC(=O)N1CCC(Nc2cc(-c3cccc(NCc4cccc(F)c4)n3)c(Cl)cn2)CC1` [Compound 85] had an IC50 of 68.5 nM. The result for `COCCN[C@H]1CC[C@H](Nc2cc(-c3cccc(NCc4cc(F)cc(F)c4)n3)c(Cl)cn2)CC1` [Compound 193] reads 7.94 nM; that for `O[C@H]1CC[C@H](Nc2cc(-c3cncc(NC[C@@H]4CCCOC4)n3)c(Cl)cn2)CC1` [Compound 264], 7.94 nM; that for `Clc1cnc(N[C@@H]2CCCNC2)cc1-c1cccc(NCC2CCCCC2)n1` [Compound 89], 2580 nM.

`N#Cc1ccc(-c2cc(N[C@H]3CC[C@H](N)CC3)ncc2Cl)nc1NCc1cccc(F)c1` [Compound 13, 2′-((1r,4r)-4-amonocyclohexylamino)-5′-chloro-6-(3-fluorobenzylamino)-2,4′-bipyridine-5-carbonitrile]: the IC50 was 7.95 nM. The result for `N[C@H]1CC[C@H](Nc2cc(-c3cc(C(F)(F)F)cc(NCc4cccc(F)c4)n3)ccn2)CC1` [Compound 11, N2′-(trans-4-aminocyclohexyl)-N6-(3-fluorobenzyl)-4-(trifluoromethyl)-2,4′-bipyridine-2′,6-diamine] reads 133 nM. The result for `CC1(C)CC(CNc2ccc(Cl)c(-c3cc(N[C@H]4CC[C@H](O)CC4)ncc3Cl)n2)CCO1` (stereo partly drawn) [Compound 297, trans-4-(3,5′-dichloro-6-((2,2-dimethyltetrahydro-2H-pyran-4-yl)methyl)amino-2,4′-bipyridin-2′-yl-amino)cyclohexanol] reads 1 nM; that for `COC[C@@H](C)N[C@H]1CC[C@H](Nc2cc(-c3ccc(C(F)(F)F)c(NCC4CCOCC4)n3)c(Cl)cn2)CC1` [Compound 308], 1 nM; that for `CN(C)[C@H]1CC[C@H](Nc2cc(-c3cccc(NCC4(C#N)CCOCC4)n3)c(Cl)cn2)CC1` [Compound 361, 4-((5′-chloro-2′-((1r,4r)-4-(dimethylamino)cyclohexylamino)-2,4′-bipyridin-6-ylamino)methyl)tetrahydro-2H-pyran-4-carbonitrile], 0.3 nM. The result for `OCCCN[C@H]1CC[C@H](Nc2cc(-c3cccc(NCc4cccc(F)c4)n3)c(Cl)cn2)CC1` [Compound 200] reads 7.94 nM. The molecule `N[C@H]1CC[C@H](Nc2cc(-c3cccc(NCC4CCCCC4)n3)ccn2)CC1` [Compound 2, N2′-(trans-4-aminocyclohexyl)-N6-(cyclohexylmethyl)-2,4′-bipyridine-2′,6-diamine] yielded an IC50 of 25.6 nM. Regarding `COCCN[C@H]1CC[C@H](Nc2cc(-c3cncc(N(C)CC4CCOCC4)n3)c(Cl)cn2)CC1` [Compound 252], half-maximal inhibition (IC50) was put at 7.94 nM. The result for `COC[C@@H](C)N[C@H]1CC[C@H](Nc2cc(-c3cccc(NCC4(CO)CCOCC4)n3)c(Cl)cn2)CC1` [Compound 349, (4-((5′-chloro-2′-(trans-4-((R)-1-methoxypropan-2-ylamino)cyclohexylamino)-2,4′-bipyridin-6-ylamino)methyl)tetrahydro-2H-pyran-4-yl)methanol] reads 1 nM. The result for `CN1CCC(CNc2cc(-c3cncc(NCC4CCOCC4)n3)c(Cl)cn2)CC1` [Compound 209] reads 183 nM; that for `Clc1cnc(N[C@H]2CCCNC2)cc1-c1cccc(NCC2CCCCC2)n1` [Compound 95], 1950 nM. In turn, `Fc1cccc(CNc2cncc(-c3ccnc(N[C@H]4CC[C@H](NCc5ccccc5)CC4)c3)n2)c1` [Compound 10, trans-N1-benzyl-N4-(4-(6-(3-fluorobenzylamino)pyrazin-2-yl)pyridin-2-yl)cyclohexane-1,4-diamine] gave an IC50 of 18.6 nM. On to `N[C@H]1CC[C@H](CNc2cc(-c3cccc(NCc4cccc(F)c4)n3)c(Cl)cn2)CC1` [Compound 169], for which the IC50 was 9 nM. As to `NC[C@H]1CC[C@H](Nc2cc(-c3cncc(NCC4CCOCC4)n3)c(Cl)cn2)CC1` [Compound 246], it took 11.5 nM to reach half-maximal inhibition (IC50).

In the case of `N[C@H]1CC[C@H](Nc2cc(-c3cccc(NCC4CCCCCC4)n3)c(Cl)cn2)CC1` [Compound 75], the IC50 is 13.5 nM. Molecule `OCCN[C@H]1CC[C@H](Nc2cc(-c3cccc(NCc4cccc(F)c4)n3)c(Cl)cn2)CC1` [Compound 19, 2-(trans-4-(5′-chloro-6-(3-fluorobenzylamino)-2,4′-bipyridin-2′-yl-amino)cyclohexylamino)ethanol] came in with an IC50 of 7.95 nM. The result for `Clc1cnc(N[C@H]2CC[C@H](NC[C@H]3CCCO3)CC2)cc1-c1cccc(NCC2CCOCC2)n1` [Compound 277] reads 7.94 nM.
